Experimental data from paper PMC4718634, “Murine GPRC6A Mediates Cellular Responses to L-Amino Acids, but Not Osteocalcin Variants” (PLoS ONE, 2016).
Entries after “also recorded” stand apart in the source; their conditions may differ.

Tests used:
Assay type in all cases: cell-based, murine
[1] = tested on: β-TC6 cells; experiment: Insulin release from β-TC6 cells; settings: S3 Fig A
Description: MIN6 or βTC-6 cells were seeded in 24-well plates at 170,000 cells per well in DMEM (containing 4.5g/L glucose, 10 mM HEPES, 100 U/ml penicillin, 100 μg/ml streptomycin and 15% de-complemented FBS) and incubated at 37°C / 5% CO2 for 72 h. Cells were then washed with 500 μl PBS and incubated in 500 μl deprivation media (DMEM with zero glucose, 10 mM HEPES, 1 mM Na-pyruvate, 100 U/ml penicillin, 100 μg/ml streptomycin, 15% de-complemented FBS) for 2 h at 37°C. Media was aspirated and after washing with 500 μl PBS, cells were treated with 250 μl of Krebs buffer (250 mM NaCl, 5.9 mM KCl, 1.2 mM MgCl2, 1.3 mM CaCl2, 25 mM HEPES, 0.1% BSA (w/v), and 2 mM or 16.7 mM glucose; pH 7.4) in the presence or absence of test compound. After incubation for 2 h at 37°C, the assay was terminated by placing the plates on ice and supernatants were transferred to a 96-well plate in preparation for insulin ELISA (Alpco) following manufacturer’s instructions. The cell monolayer was washed twice with 500 μl of PBS and then lysed using 250 μl of 1 N NaOH prior to protein measurement by the method of Bradford (1976).
Concentration-response data were analysed using a three or four parameter logistic function (Motulsky & Christopoulos, 2004) to generate estimates of agonist potency (LogEC50). Data for all HEK293 assays represent the mean ± SEM of at least three independent experiments (except cell impedance, n = 2). For GLP-1 release, the data represent mean ± SEM of three to five independent experiments (except for OCN, wash; n = 2). For insulin release assays, data represent the mean ± SEM of three independent experiments (except for islet studies; n = 2). Insulin release data were normalised to the response to vehicle in either low or high [glucose]. Statistical analysis for GLP-1 release data were performed by one-way ANOVA, followed by Sidak’s multiple comparisons test (treating wash / no wash datasets separately). Statistical analyses for insulin release data were performed by two-way ANOVA (with [glucose] and drug treatment as group variables), followed by Sidak’s multiple comparisons test. Where only high [glucose] groups were evaluated, statistical analysis was by one-way ANOVA followed by Sidak’s multiple comparisons test.

[2] = tested on: GLUTag cells; experiment: GLP-1 release from GLUTag cells; settings: for GLP-1 release (summary): S1 Table
Procedure, shortened: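 Matrigel-grown cells, where indicated pre-washed in Krebs-HEPES pH 7.2 with 5.5 mM glucose and 300 μM vildagliptin, were exposed to compound for 2 h at 37 °C. Secreted GLP-1 was measured by fluorescent ELISA (355/460 nm) and normalised to Bradford protein. LogEC50 values came from 3- or 4-parameter logistic fits.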

[3] = tested on: MIN6 cells; experiment: Insulin release from MIN6 cells
Procedure, shortened: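 After 72 h culture and 2 h glucose-free deprivation, cells exposed to compound for 2 h at 37°C in Krebs buffer pH 7.4 with 2 mM or 16.7 mM glucose. Secreted insulin measured by ELISA, normalised to vehicle at matching glucose; LogEC50 from three- or four-parameter logistic fit.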

Compound	glucose-sensitive insulin secretion, L-ornithine ([1]; L-ornithine 20 mM)	GLP-1 release ([2]; L-ornithine 20 mM, 2 h, 37°C, cells washed, **P < 0.01 vs Vehicle, ELISA, Fig 6A)	GLP-1 release (summary) [2]	glucose-sensitive insulin secretion ([3]; L-ornithine 20 mM, 16.7 mM glucose, P < 0.01 vs Vehicle, 2 h, ELISA, Fig 6B)	insulin secretion, OCN ([1]; OCN 0.03–100 ng/ml, both glucose concentrations)	GLP-1 release, OCN ([2]; 0.01–10 ng/ml, with or without cell washing, 2 h, Fig 6A)	insulin secretion, OCN ([3]; mouse OCN 0.03–30 ng/mL, 0.03–100 ng/mL (Fig 6B legend), low and high glucose)
NCCC[C@H](N)C(=O)O [L-ornithine]	no significant effect	significantly increases GLP-1 release; also recorded: L-ornithine stimulated GLP-1 release	response	significantly increased glucose-sensitive insulin secretion; also recorded: could be increased by L-ornithine			
OCN: osteoblast-derived peptide, osteocalcin; variant not specified at the place (YLYQWLGAPVPYPDPLEPRREVCELNPDCDELADHIGFQEAYRRFYGPV; UniProt P02818 52-100, looked up)			No response		no effect on insulin release; also recorded: failed to induce GSIS	failed to increase GLP-1 release	failed to induce GSIS
